# From US12630529B2, “GCN2 modulator compounds” (ALESTA THERAPEUTICS BV, priority 2020, dated 2026)
# Biological target: T1, GCN2 (Mus musculus, UniProt Q9QZ05)
# T1 construct: endogenous in cells; host or cells: Neuro 2a (N2a)
# Experiment: GCN2 inhibition cell-based assay (P-GCN2 Western blot in Neuro 2a cells)
# Conditions: amino acid deprived media (DMEM lacking L-cysteine and methionine), 3 hours
# Method: Neuro 2a cells (N2a) were maintained at 37° C. and 5% CO2 in DMEM/F12 medium (Fisher Scientific) supplemented with 10% fetal bovine serum and 1% penicillin-streptomycin (complete medium). 300,000 cells/well were seeded in flat bottom 6 well plates 48 hours before treatment with the compounds.
# Testing compounds were prepared at different concentrations ranging from 10 μM to 0.1 nM on DMEM medium lacking L-cysteine and methionine (DMEM-CM) (Gibco) and supplemented with 1% penicillin-streptomycin. Complete medium was used as control of non-stressed condition. After 48 hours, the medium was removed from each well and 2 mL per well of each treatment was added. Cells were treated for 3 hours at 37° C. and 5% CO2.
# After the incubation time, each well was washed with sterile 1×PBS and then 100 μL of ice-cold lysis buffer supplemented with phosphatase and protease inhibitors was added. Lysates were transferred to 1.5 mL tubes and sonicated for 3 min, and total protein amounts were quantified using BCA assay (e.g., BCA Protein Assay Kit; Pierce) according to manufacturer instructions. Equal amount of proteins was loaded on SDS-PAGE gels for electrophoresis and then transferred onto 0.2 µm filter pore PVDF membranes.
# Membranes were then blocked in blocking buffer containing 3% BSA/0.1% Tween/1×Tris-buffered saline (TBS) for 1 hour and then incubated overnight at 4° C. with agitation with anti-pGCN2 primary antibody (Abcam ab-75836), diluted 1:1,000 in blocking buffer. […] (Sigma Aldrich) was used as a loading control.
# Membranes were then incubated with the corresponding secondary antibody to detect immune-reactive bands using enhanced chemiluminescence (e.g., ECL Western Blotting Substrate Pierce).
# Images were acquired (e.g., using Chemidoc™ equipment) and quantitated by densitometry using ImageJ software. IC50 values were determined from a concentration-response curve using GraphPad prism software.
# IC50 values from P-GCN2 inhibition assay after induction with amino acid deprived media in the presence of different concentrations of test compounds are shown in Table 2. For IC50 values: +++ refers to <10 nM of test compound; ++ refers to 10 nM to 100 nM of test compound; + refers to 100 nM to 1,000 nM of test compound and − refers to >1,000 nM of test compound.
# Under GCN2-mediated stress conditions, resulting from an amino acid deprived medium, GCN2 is generally phosphorylated. Accordingly, inhibition of GCN2 phosphorylation as a result of the test compound indicates inhibition of the GCN2 pathway.
# T1 sequence (Q9QZ05 whole entry): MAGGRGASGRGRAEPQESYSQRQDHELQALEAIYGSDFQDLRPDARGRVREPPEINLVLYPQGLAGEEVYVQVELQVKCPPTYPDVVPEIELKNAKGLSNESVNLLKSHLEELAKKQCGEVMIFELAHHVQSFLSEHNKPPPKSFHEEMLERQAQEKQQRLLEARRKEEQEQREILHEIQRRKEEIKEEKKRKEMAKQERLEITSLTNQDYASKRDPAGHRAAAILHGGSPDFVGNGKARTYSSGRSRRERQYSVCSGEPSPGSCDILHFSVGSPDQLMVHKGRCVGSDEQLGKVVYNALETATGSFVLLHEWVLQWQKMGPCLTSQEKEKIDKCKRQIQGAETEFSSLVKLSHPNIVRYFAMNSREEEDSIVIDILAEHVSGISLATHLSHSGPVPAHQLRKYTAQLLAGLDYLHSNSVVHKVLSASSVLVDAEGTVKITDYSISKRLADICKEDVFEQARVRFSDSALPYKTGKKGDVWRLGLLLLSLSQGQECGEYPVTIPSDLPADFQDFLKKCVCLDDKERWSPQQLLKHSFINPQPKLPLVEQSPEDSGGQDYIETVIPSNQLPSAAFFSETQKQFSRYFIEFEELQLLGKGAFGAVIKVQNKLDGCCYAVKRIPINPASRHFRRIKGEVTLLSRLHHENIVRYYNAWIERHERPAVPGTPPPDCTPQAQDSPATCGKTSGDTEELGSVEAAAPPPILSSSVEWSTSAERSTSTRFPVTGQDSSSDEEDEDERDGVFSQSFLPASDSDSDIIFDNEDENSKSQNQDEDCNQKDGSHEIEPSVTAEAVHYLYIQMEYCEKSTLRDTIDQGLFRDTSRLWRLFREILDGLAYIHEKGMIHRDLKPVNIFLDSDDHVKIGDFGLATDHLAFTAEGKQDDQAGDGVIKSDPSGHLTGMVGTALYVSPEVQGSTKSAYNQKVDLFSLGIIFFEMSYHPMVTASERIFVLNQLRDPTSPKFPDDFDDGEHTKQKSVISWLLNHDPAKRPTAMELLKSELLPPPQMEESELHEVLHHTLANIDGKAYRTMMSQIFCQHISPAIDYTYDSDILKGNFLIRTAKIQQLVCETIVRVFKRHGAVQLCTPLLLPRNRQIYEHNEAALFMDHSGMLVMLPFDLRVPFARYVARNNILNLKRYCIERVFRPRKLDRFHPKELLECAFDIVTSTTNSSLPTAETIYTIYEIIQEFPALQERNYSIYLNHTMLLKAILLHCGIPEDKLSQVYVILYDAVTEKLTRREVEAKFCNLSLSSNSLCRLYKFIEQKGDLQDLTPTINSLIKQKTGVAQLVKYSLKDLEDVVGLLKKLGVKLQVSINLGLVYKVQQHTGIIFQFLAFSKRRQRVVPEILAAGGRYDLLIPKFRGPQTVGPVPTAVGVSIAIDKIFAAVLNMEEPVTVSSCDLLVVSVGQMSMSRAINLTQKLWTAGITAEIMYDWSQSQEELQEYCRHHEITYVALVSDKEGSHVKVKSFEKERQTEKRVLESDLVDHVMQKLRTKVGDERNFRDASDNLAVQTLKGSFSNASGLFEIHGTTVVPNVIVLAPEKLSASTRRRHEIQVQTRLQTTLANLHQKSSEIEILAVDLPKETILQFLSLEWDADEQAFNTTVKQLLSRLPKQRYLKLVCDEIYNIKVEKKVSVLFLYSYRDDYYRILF
row,SMILES,IC50
1,Nc1ncc2cc(-c3c(F)ccc(NS(=O)(=O)c4cccc(F)c4)c3F)ccc2n1 [Compound 116],> 1000 nM
2,COc1ccc(S(=O)(=O)Nc2ccc(F)c(-c3ccc4nc(N)ncc4c3)c2F)cc1C [Compound 117],> 1000 nM
3,Nc1ccc2cc(-c3c(F)ccc(NS(=O)(=O)c4cc(Cl)ccc4Cl)c3F)ccc2n1 [Compound 107],> 1000 nM
4,Nc1ncc2cc(-c3c(F)ccc(NS(=O)(=O)c4ccsc4)c3F)ccc2n1 [Compound 140],> 1000 nM
5,Cc1cccc(S(=O)(=O)Nc2ccc(F)c(-c3ccc4nc(N)ncc4c3)c2F)c1 [Compound 125],> 1000 nM
6,COc1ncc(Cl)cc1S(=O)(=O)Nc1ccc(F)c(-c2cccc3cnc(N)nc23)c1F [Compound 44],> 1000 nM
7,COc1ccc(F)cc1S(=O)(=O)Nc1ccc(F)c(-c2ccc3nc(N)ncc3c2)c1F [Compound 110],> 1000 nM
8,COc1ccc(OC)c(S(=O)(=O)Nc2ccc(F)c(-c3ccc4nc(N)ncc4c3)c2F)c1 [Compound 119],> 1000 nM
9,Nc1ncc2cc(-c3c(F)ccc(NS(=O)(=O)c4cc(F)cc(C(F)(F)F)c4)c3F)ccc2n1 [Compound 123],> 1000 nM
10,Nc1ncc2cc(-c3c(F)ccc(NS(=O)(=O)c4cccs4)c3F)ccc2n1 [Compound 142],> 1000 nM
11,Nc1ncc2cc(-c3c(F)ccc(NS(=O)(=O)c4cccnc4)c3F)ccc2n1 [Compound 130],> 1000 nM
12,O=S(=O)(Nc1ccc(F)c(-c2ccc3nc(N[C@H](CO)c4ccccc4)ncc3c2)c1F)c1cc(Cl)ccc1C(F)(F)F [Compound 166],100 to 1000 nM
13,Nc1ncc2cc(-c3c(F)ccc(NS(=O)(=O)c4cccc(C(F)(F)F)c4)c3F)ccc2n1 [Compound 145],> 1000 nM
14,Nc1ncc2c(-c3c(F)ccc(NS(=O)(=O)c4cc(Cl)ccc4Cl)c3F)cccc2n1 [Compound 111],> 1000 nM
15,Nc1ncc2cc(-c3c(F)ccc(NS(=O)(=O)c4cccc(OC(F)(F)F)c4)c3F)ccc2n1 [Compound 139],100 to 1000 nM
16,Nc1ncc2cc(-c3c(F)ccc(NS(=O)(=O)c4cc(F)cc(F)c4)c3F)ccc2n1 [Compound 112],> 1000 nM
17,COc1ncc(Cl)cc1S(=O)(=O)Nc1ccc(F)c(-c2ccc3nc(N)ncc3c2)c1 [Compound 19],100 to 1000 nM
18,Nc1ncc2cc(-c3c(F)ccc(NS(=O)(=O)c4ccc(F)c(F)c4)c3F)ccc2n1 [Compound 132],> 1000 nM
19,Nc1ncc2cc(-c3c(F)ccc(NS(=O)(=O)c4cc(F)ccc4F)c3F)ccc2n1 [Compound 8],> 1000 nM
20,COc1ncc(Cl)cc1S(=O)(=O)Nc1ccc(F)c(-c2ccc3nc(N[C@H](CO)c4ccccc4)ncc3c2)c1F [Compound 163],100 to 1000 nM
21,Nc1ncc2cc(-c3c(F)ccc(NS(=O)(=O)c4ccc(Cl)c(Cl)c4)c3F)ccc2n1 [Compound 9],100 to 1000 nM
22,Nc1ncc2cc(-c3c(F)ccc(NS(=O)(=O)c4ccc(F)c(Cl)c4)c3F)ccc2n1 [Compound 158],100 to 1000 nM
23,Nc1ncc2cc(-c3c(F)ccc(NS(=O)(=O)c4ccc(Cl)c(C(F)(F)F)c4)c3F)ccc2n1 [Compound 149],100 to 1000 nM
24,Cc1ccc(NS(=O)(=O)c2cc(Cl)ccc2Cl)cc1-c1ccc2nc(N)ncc2c1 [Compound 16],100 to 1000 nM
25,Nc1ncnc2ccc(-c3c(F)ccc(NS(=O)(=O)c4cc(Cl)ccc4Cl)c3F)cc12 [Compound 17],> 1000 nM
26,Nc1ncc2cc(-c3c(F)ccc(N[S+]([O-])c4ccc(Cl)cc4Cl)c3F)ccc2n1 (centres unmarked) [Compound 15],100 to 1000 nM
27,Nc1ncc2cc(-c3cccc4c3ccn4S(=O)(=O)c3cc(Cl)ccc3Cl)ccc2n1 [Compound 76],> 1000 nM
28,CCc1ccc(OC)c(S(=O)(=O)Nc2ccc(F)c(-c3ccc4nc(N)ncc4c3)c2F)c1 [Compound 120],> 1000 nM
29,Nc1ncc2cc(-c3c(F)ccc(NS(=O)(=O)C4CCCCC4)c3F)ccc2n1 [Compound 81],> 1000 nM
30,O=S(=O)(Nc1ccc(F)c(-c2cc(F)c3[nH]cnc3c2)c1F)c1cc(Cl)ccc1Cl [Compound 18],> 1000 nM

# Second part, the compound after the results:
row,IC50,SMILES
1,< 10 nM,COc1ccc(Cl)cc1S(=O)(=O)Nc1ccc(F)c(-c2ccc3nc(N)ncc3c2)c1F [Compound 10]
2,100 to 1000 nM,Cc1ccc(S(=O)(=O)Nc2ccc(F)c(-c3ccc4nc(N)ncc4c3)c2F)cc1Cl [Compound 147]
3,100 to 1000 nM,O=S(=O)(Nc1ccc(F)c(-c2ccc3nc(N[C@@H](CO)c4ccccc4)ncc3c2)c1F)c1cc(Cl)ccc1C(F)(F)F [Compound 167]
4,100 to 1000 nM,Nc1ncc2cc(-c3c(F)ccc(NS(=O)(=O)c4ccc(Cl)c(F)c4)c3F)ccc2n1 [Compound 146]
5,< 10 nM,CNc1ncc2cc(-c3c(F)ccc(NS(=O)(=O)c4cc(Cl)cnc4OC)c3F)ccc2n1 [Compound 47]
6,< 10 nM,O=S(=O)(Nc1ncc(F)c(-c2ccc3nc(NCCO)ncc3c2)c1F)c1cc(Cl)ccc1Cl [Compound 128]
7,10 to 100 nM,COc1ccc(S(=O)(=O)Nc2ccc(F)c(-c3ccc4nc(N)ncc4c3)c2F)cc1OC [Compound 115]
8,100 to 1000 nM,Nc1ncc2cc(-c3c(F)ccc(NS(=O)(=O)c4ccc5occc5c4)c3F)ccc2n1 [Compound 122]
9,100 to 1000 nM,COc1cc(S(=O)(=O)Nc2ccc(F)c(-c3ccc4nc(N)ncc4c3)c2F)ccc1F [Compound 143]
10,< 10 nM,O=S(=O)(Nc1ccc(F)c(-c2ccc3nc(NCCO)ncc3c2)c1F)c1cc(Cl)cc(CO)c1Cl [Compound 134]
11,10 to 100 nM,COc1ccc(C)cc1S(=O)(=O)Nc1ccc(F)c(-c2ccc3nc(N)ncc3c2)c1F [Compound 118]
12,< 10 nM,COc1ncc(Cl)cc1S(=O)(=O)Nc1ccc(F)c(-c2ccc3nc(N[C@H]4CC[C@@H](O)CC4)ncc3c2)c1F [Compound 129]
13,< 10 nM,Nc1ncc2cc(-c3c(F)ccc(NS(=O)(=O)c4cc(C(F)(F)F)ccc4C(F)(F)F)c3F)ccc2n1 [Compound 121]
14,100 to 1000 nM,Nc1ncc2cc(-c3c(F)ccc(NS(=O)(=O)c4cc(C(F)(F)F)ccc4F)c3F)ccc2n1 [Compound 135]
15,< 10 nM,CC(=O)Nc1ncc2cc(-c3c(F)ccc(NS(=O)(=O)c4cc(Cl)ccc4Cl)c3F)ccc2n1 [Compound 106]
16,100 to 1000 nM,COc1ncc(Cl)cc1S(=O)(=O)Nc1ccc(F)c(-c2ccc3nc(N[C@@H](CO)c4ccccc4)ncc3c2)c1F [Compound 154]

row,IC50,SMILES
1,< 10 nM,Nc1ncc2cc(-c3c(F)ccc(NS(=O)(=O)c4cc(Cl)cc(Cl)c4)c3F)ccc2n1 [Compound 59]
2,10 to 100 nM,O=S(=O)(Nc1ccc(F)c(-c2ccc3nc(N[C@H]4CC[C@@H](O)CC4)ncc3c2)c1F)c1cc(Cl)ccc1C(F)(F)F [Compound 165]
3,< 10 nM,Nc1ncc2cc(-c3c(F)ccc(NS(=O)(=O)c4cc(Cl)ccc4C(F)(F)F)c3F)ccc2n1 [Compound 58]
4,10 to 100 nM,COc1ncc(Cl)cc1S(=O)(=O)Nc1ccc(F)c(-c2ccc3nc(NC(CO)CO)ncc3c2)c1F [Compound 153]
5,10 to 100 nM,Nc1ncc2cc(-c3c(F)ccc(NS(=O)(=O)c4cc(C(F)(F)F)cc(C(F)(F)F)c4)c3F)ccc2n1 [Compound 144]
6,< 10 nM,COc1ncc(Cl)cc1S(=O)(=O)Nc1ccc(F)c(-c2ccc3nc(N[C@H]4CC[C@H](O)CC4)ncc3c2)c1F [Compound 65]
7,10 to 100 nM,Cc1ccc(F)cc1S(=O)(=O)Nc1ccc(F)c(-c2ccc3nc(N)ncc3c2)c1F [Compound 133]
8,< 10 nM,COc1ncc(Cl)cc1S(=O)(=O)Nc1ccc(F)c(-c2ccc3nc(N[C@@H](C)CO)ncc3c2)c1F [Compound 157]
9,10 to 100 nM,Cc1ccc(S(=O)(=O)Nc2ccc(F)c(-c3ccc4nc(N)ncc4c3)c2F)cc1F [Compound 159]
10,10 to 100 nM,Nc1ncc2cc(-c3c(F)ccc(NS(=O)(=O)c4cc(Cl)cc(C(F)(F)F)c4)c3F)ccc2n1 [Compound 63]
11,< 10 nM,O=S(=O)(Nc1ccc(F)c(-c2ccc3nc(N[C@H]4CC[C@H](O)CC4)ncc3c2)c1F)c1cc(Cl)cc(CO)c1Cl [Compound 69]
12,10 to 100 nM,COc1ncc(Cl)cc1S(=O)(=O)Nc1ccc(Cl)c(-c2ccc3nc(N)ncc3c2)c1Cl [Compound 131]
13,< 10 nM,O=S(=O)(Nc1ccc(F)c(-c2ccc3nc(N[C@H]4CC[C@H](O)CC4)ncc3c2)c1F)c1cc(Cl)ccc1Cl [Compound 67]
14,10 to 100 nM,Nc1ncc2cc(-c3c(F)ccc(NS(=O)(=O)c4cc(Cl)c(Cl)cc4Cl)c3F)ccc2n1 [Compound 150]
15,10 to 100 nM,COc1ncc(Cl)cc1S(=O)(=O)Nc1ccc(F)c(-c2ccc3nc(N4CCCCC4)ncc3c2)c1F [Compound 156]
16,< 10 nM,O=S(=O)(Nc1ccc(F)c(-c2ccc3nc(NC4CCOC4)ncc3c2)c1F)c1cc(Cl)ccc1Cl (centres unmarked) [Compound 168]
